This experiment has as its system Bacillus subtilis ATCC 6633. The experiment is described as follows: Test for antibacterial activity (paper disk, diameter of inhibitory zone, before and after incubation in rat liver/kidney homogenate). The experiment is classed as cell-based. Conditions: 200 mcq/ml, 8 mm paper disk. The procedure:
Each of the test compounds shown in the following table was dissolved in a concentration of 200 mcq/ml in a homogenate of a 10% physiological saline solution of an organ of a rat, and incubated at 37° C. for 2 hours. An enzymatic reaction was stopped by adding an equal amount of ethanol. The antibacterial activity of the test compound before incubation was compared with that after incubation. The incubation was carried out in an equal amount mixture of a liver homogenate and a kidney homogenate. The antibacterial activity was measured by a paper disk having a diameter of 8 mm using Bacillus subtilis ATCC 6633 as a test organism, and shown by the diameter of the resulting inhibitory zone.

Where [1] appears, read: ATCC6633, after incubation at 37° C. for 2 hours in rat liver homogenate and kidney homogenate, read-out: Diameter of the inhibitory zone, after incubation.
The mark [2] stands for this setting: ATCC6633, before incubation, read-out: Diameter of the inhibitory zone, before incubation.

Like-named read-outs stand apart in the source and are kept apart here.

Regarding `CCCCCCCCCCCCCCCCCC(=O)OCCCCOC(=O)CC[C@H](N)C(=O)NCC(=O)N(C)C1C(O)CC(N)C(OC2OC(C(C)N)CCC2N)C1O` (stereo partly drawn) [Example 24, 2"-N-[γ-O-(4-stearoyloxybutyl)-L-glutamyl]-5-de-O-methyl-KA-6606I], the zone of inhibition at 200 µg/mL is 22.6 mm under setting [1] and 16.2 mm under setting [2].

In the case of `CC(N)C1CCC(N)C(OC2C(N)CC(O)C(N(C)C(=O)CNC(=O)[C@@H](N)CCC(=O)OCCCCOC(=O)CC[C@@H](C)[C@H]3CC[C@H]4[C@@H]5CC[C@@H]6C[C@H](O)CC[C@]6(C)[C@H]5C[C@H](O)[C@]34C)C2O)O1` (stereo partly drawn) [Example 26, 2"-N-[γ-O-(4-deoxycholyloxybutyl)-L-glutamyl]-5-de-O-methyl-KA-6606I], the zone of inhibition at 200 µg/mL runs as follows: under setting [1], 21.8 mm; under setting [2], 14.8 mm.

For the compound `CCCCCCCCCC(=O)NCCCOC(=O)CC[C@H](N)C(=O)NCC(=O)N(C)C1C(O)CC(N)C(OC2OC(C(C)N)CCC2N)C1O` (stereo partly drawn) [Example 28, 2"-N-[γ-O-(3-decanoylaminopropyl)-L-glutamyl]-5-de-O-methyl-KA-6606I], the zone of inhibition at 200 µg/mL under setting [1] was 23.9 mm and the zone of inhibition at 200 µg/mL under setting [2] is 14.6 mm.

With `CCCNC(=O)CC[C@H](N)C(=O)NCC(=O)N(C)C1C(O)CC(N)C(OC2OC(C(C)N)CCC2N)C1O` (stereo partly drawn) [Example 29, 2"-N-(N^γ -propyl-L-glutaminyl)-5-de-O-methyl-KA-6606I], the zone of inhibition at 200 µg/mL was determined as 24.6 mm under setting [1] and 15.1 mm under setting [2].

On to `CCCCCCNC(=O)CC[C@H](N)C(=O)NCC(=O)N(C)C1C(O)CC(N)C(OC2OC(C(C)N)CCC2N)C1O` (stereo partly drawn) [Example 30, 2"-N-(N^γ-hexyl-L-glutaminyl)-5-de-O-methyl-KA-6606I], for which the zone of inhibition at 200 µg/mL under setting [1] came to 19.8 mm and the zone of inhibition at 200 µg/mL under setting [2] turned out to be 15 mm.

In the case of `CCCCCCCCNC(=O)CC[C@H](N)C(=O)NCC(=O)N(C)C1C(O)CC(N)C(OC2OC(C(C)N)CCC2N)C1O` (stereo partly drawn) [Example 31, 2"-N-(N^γ-octyl-L-glutaminyl)-5-de-O-methyl-KA-6606I], the zone of inhibition at 200 µg/mL under setting [1] amounted to 19 mm and the zone of inhibition at 200 µg/mL under setting [2] is 15.3 mm.

For `CCCCCCCCCCNC(=O)CC[C@H](N)C(=O)NCC(=O)N(C)C1C(O)CC(N)C(OC2OC(C(C)N)CCC2N)C1O` (stereo partly drawn) [Example 32, 2"-N-(N^γ -decyl-L-glutaminyl)-5-de-O-methyl-KA-6606I], the zone of inhibition at 200 µg/mL worked out at 19 mm under setting [1] and 14.1 mm under setting [2].

With `CC(N)C1CCC(N)C(OC2C(N)CC(O)C(N(C)C(=O)CNC(=O)[C@@H](N)CCC(=O)Nc3cccc4ccccc34)C2O)O1` (stereo partly drawn) [Example 33, 2"-N-[N^γ-(1-naphthyl)-L-glutamin-yl]-de-O-methyl-KA-6606I], the zone of inhibition at 200 µg/mL by setting is: under setting [1], 23.5 mm; under setting [2], 15.7 mm.

Take `CC(=O)NCCCNC(=O)CC[C@H](N)C(=O)NCC(=O)N(C)C1C(O)CC(N)C(OC2OC(C(C)N)CCC2N)C1O` (stereo partly drawn) [Example 34, 2"-N-[N^γ -(3-acetylaminopropyl)-L-glutaminyl]-5-de-O-methyl-KA-66061]: the zone of inhibition at 200 µg/mL is 23.1 mm under setting [1] and 10.7 mm under setting [2].

Consider `CCCC(=O)NCCCNC(=O)CC[C@H](N)C(=O)NCC(=O)N(C)C1C(O)CC(N)C(OC2OC(C(C)N)CCC2N)C1O` (stereo partly drawn) [Example 35, 2"-N-[N^γ -(3-n-butyrylaminopropyl)-L-glutaminyl]-5de-O-methyl-KA-6606I], for which the zone of inhibition at 200 µg/mL under setting [1] worked out at 20.7 mm and the zone of inhibition at 200 µg/mL under setting [2] amounted to 10.7 mm.

For `CCCCCC(=O)NCCCNC(=O)CC[C@H](N)C(=O)NCC(=O)N(C)C1C(O)CC(N)C(OC2OC(C(C)N)CCC2N)C1O` (stereo partly drawn) [Example 36, 2"-N-[N^γ -(3-hexanoylaminopropyl)-L-glutaminyl]-5-de-O-methyl-KA-6606I], the zone of inhibition at 200 µg/mL runs as follows: under setting [1], 22.8 mm; under setting [2], 10.5 mm.

On to `CCCCCCCC(=O)NCCCNC(=O)CC[C@H](N)C(=O)NCC(=O)N(C)C1C(O)CC(N)C(OC2OC(C(C)N)CCC2N)C1O` (stereo partly drawn) [Example 37, 2"-N-[N^γ -(3-octanoylaminopropyl)-L-glutaminyl]-5-do-O-methyl-KA-6606I], for which the zone of inhibition at 200 µg/mL amounted to 25.1 mm under setting [1] and 14.1 mm under setting [2].

As to `CCCCCCCCCC(=O)NCCCNC(=O)CC[C@H](N)C(=O)NCC(=O)N(C)C1C(O)CC(N)C(OC2OC(C(C)N)CCC2N)C1O` (stereo partly drawn) [Example 38, 2"-N-[N^γ -(3-decanoylaminopropyl)-L-glutaminyl]-5-de-O-methyl-KA-6606I], the zone of inhibition at 200 µg/mL was 23.9 mm under setting [1] and 17.1 mm under setting [2].

On to `CCCCCCCCCCCC(=O)NCCCNC(=O)CC[C@H](N)C(=O)NCC(=O)N(C)C1C(O)CC(N)C(OC2OC(C(C)N)CCC2N)C1O` (stereo partly drawn) [Example 39, 2"-N-[N^γ -(3-lauroylaminopropyl)-L-glutaminyl]-5-de-O-methyl-KA-6606I], for which the zone of inhibition at 200 µg/mL under setting [1] came to 21.2 mm and the zone of inhibition at 200 µg/mL under setting [2] was determined as 9.8 mm.

Regarding `CCCCCCCCCCCCCCCCCC(=O)NCCCNC(=O)CC[C@H](N)C(=O)NCC(=O)N(C)C1C(O)CC(N)C(OC2OC(C(C)N)CCC2N)C1O` (stereo partly drawn) [Example 40, 2"-N-[N^γ -(3-stearoylaminopropyl)-L-glutaminyl]-5-de-O-methyl-KA-6606I], the zone of inhibition at 200 µg/mL was 16.6 mm under setting [1] and 14.1 mm under setting [2].

Take `CCCCCCCCCCCCCCCCCCCCCCCC(=O)NCCCNC(=O)CC[C@H](N)C(=O)NCC(=O)N(C)C1C(O)CC(N)C(OC2OC(C(C)N)CCC2N)C1O` (stereo partly drawn) [Example 41, 2"-N-[N^γ -(3-lignocerolylaminopropyl)-L-glutaminyl]-5-de-O-methyl-KA-6606I]: the zone of inhibition at 200 µg/mL is, setting by setting: under setting [1], 14.1 mm; under setting [2], 8 mm.

With `CC(N)C1CCC(N)C(OC2C(N)CC(O)C(N(C)C(=O)CNC(=O)[C@@H](N)CCC(=O)NCCCCCCCCO)C2O)O1` (stereo partly drawn) [Example 42, 2"-N-[N^γ -(8-hydroxyoctyl)-L-glutaminyl]-5-de-O-methyl-KA-6606I], the zone of inhibition at 200 µg/mL came to 23 mm under setting [1] and 15.1 mm under setting [2].

Regarding `CC(C)OCCCNC(=O)CC[C@H](N)C(=O)NCC(=O)N(C)C1C(O)CC(N)C(OC2OC(C(C)N)CCC2N)C1O` (stereo partly drawn) [Example 43, 2"-N-[N^γ -(3-isopropoxypropyl)-L-glutaminyl]-5-de-O-methyl-KA-6606I], the zone of inhibition at 200 µg/mL is, setting by setting: under setting [1], 18.4 mm; under setting [2], 10.8 mm.

As to `CCCCCCNC(=O)CNC(=O)CC[C@H](N)C(=O)NCC(=O)N(C)C1C(O)CC(N)C(OC2OC(C(C)N)CCC2N)C1O` (stereo partly drawn) [Example 44, 2"-N-[N^γ -(hexylaminocarbonylmethyl)-L-glutaminyl]-5-de-O-methyl-KA-6606I], the zone of inhibition at 200 µg/mL by setting is: under setting [1], 20.2 mm; under setting [2], 8 mm.

In the case of `CC(=O)OC1CCC2(C)C(CCC3C2CC(OC(C)=O)C2(C)C(C(C)CCC(=O)NCCCNC(=O)CCC(N)C(=O)NCC(=O)N(C)C4C(O)CC(N)C(OC5OC(C(C)N)CCC5N)C4O)CCC32)C1` [Example 45, 2"-N-{N^γ -[3-(3,12-di-O-acetyldeoxycholylamino)propyl]-L-glutaminyl}-5-de-O-methyl-KA-6606I], the zone of inhibition at 200 µg/mL runs as follows: under setting [1], 16.7 mm; under setting [2], 14.8 mm.

In the case of `CCCOC1CCC2(C)C(CCC3C2CC(OCCC)C2(C)C(C(C)CCC(=O)NCCCNC(=O)CCC(N)C(=O)NCC(=O)N(C)C4C(O)CC(N)C(OC5OC(C(C)N)CCC5N)C4O)CCC32)C1` [Example 46, 2"-N-{N^γ -[3-(3,12-di-O-propyldeoxycholylamino)propyl]-L-glutaminyl}-5-di-O-methyl-KA-6606I], the zone of inhibition at 200 µg/mL is 16.6 mm under setting [1] and 15.9 mm under setting [2].

Regarding `CC(N)C1CCC(N)C(OC2C(N)CC(O)C(N(C)C(=O)CNC(=O)[C@@H](N)CCC(=O)N[C@@H](Cc3ccccc3)C(=O)O)C2O)O1` (stereo partly drawn) [Example 47, 2"-N-{N^γ -[(s)-1-carboxy-2-phenyl-ethyl]-L-glutaminyl}-5-de-O-methyl-KA-6606I], the zone of inhibition at 200 µg/mL is, setting by setting: under setting [1], 17.9 mm; under setting [2], 9.5 mm.

On to `CCCCCCCCCC(=O)NC(CCCCNC(=O)CC[C@H](N)C(=O)NCC(=O)N(C)C1C(O)CC(N)C(OC2OC(C(C)N)CCC2N)C1O)C(=O)OC` (stereo partly drawn) [Example 48, 2"-N-{N^γ -[5-(decanoylamino)-5-(methoxycarbonyl)pentyl]-L-glutaminyl}-5-de-O-methyl-KA-6606I], for which the zone of inhibition at 200 µg/mL under setting [1] was found to be 18.3 mm and the zone of inhibition at 200 µg/mL under setting [2] worked out at 18 mm.

For the compound `CCCCCCCCCC(=O)NCCCCC(NC(=O)CC[C@H](N)C(=O)NCC(=O)N(C)C1C(O)CC(N)C(OC2OC(C(C)N)CCC2N)C1O)C(=O)OC` (stereo partly drawn) [Example 49, 2"-N-{N^γ -[5-(decanoylamino)-1-(methoxycarbonyl)pentyl]-L-glutaminyl}-5-de-O-methyl-KA-6066I], the zone of inhibition at 200 µg/mL reads like this: under setting [1], 16.1 mm; under setting [2], 15.9 mm.

In the case of `CCCCCCCCCC(=O)NCCCNC(=O)CC[C@H](N)C(=O)NCC(=O)N(C)C1C(O)C(OC2OC(C(C)N)CCC2N)C(N)C(O)C1OC` (stereo partly drawn) [Example 50, 2"-N-[N^γ -(3-decanoylaminopropyl)-L-glutaminyl)fortimicin A], the zone of inhibition at 200 µg/mL under setting [1] is 23.6 mm and the zone of inhibition at 200 µg/mL under setting [2] is 15 mm.

`COc1ccc(CSC[C@H](N)C(=O)NCC(=O)N(C)C2C(O)CC(N)C(OC3OC(C(C)N)CCC3N)C2O)cc1` (stereo partly drawn) [Example 51, 2"-N-[S-(p-methoxybenzyl)-L-cysteinyl]-5-de-O-methyl-KA-6606I]: the zone of inhibition at 200 µg/mL runs as follows: under setting [1], 25.4 mm; under setting [2], 18.3 mm.

With `CC(N)C1CCC(N)C(OC2C(N)CC(O)C(N(C)C(=O)CNC(=O)[C@@H](N)CSCc3ccc([N+](=O)[O-])cc3)C2O)O1` (stereo partly drawn) [Example 52, 2"-N-[S-(p-nitrobenzyl)-L-cysteinyl]-5-de-O-methyl-KA-6606I], the zone of inhibition at 200 µg/mL is 26.2 mm under setting [1] and 20.7 mm under setting [2].
